Measurements taken from patent US12038432B2, “Organoids related to immunotherapy and methods of preparing and using the same” (Wake Forest University Health Sciences, priority 2018, dated 2024).
“Also recorded” adds a separate entry of the source.

How the values were obtained:
[1] = tested on: PTOs derived from a melanoma patient (Non-Responder); assay: LIVE/DEAD imaging of tumor organoids derived from a non-responder melanoma patient; type: cell-based, human; settings: FIG. 1C
Experimental: (§1) Drug screen output metrics: Drugs will be administered for 48 hours, after which efficacy will be determined as follows; specifically, viability of cells will be assessed by (LIVE/DEAD), number of viable cells alone, number of viable cells versus dead cells, mitochondrial metabolism (MTS), LDH quantification (positive in tumor cells), and IHC (colocalization of fluorescently labeled immune cells with apoptotic, proliferative, and tumor cell markers).

[2] = tested on: 3D patient-specific mixed melanoma/node organoids; assay: Personalized immunotherapy screening on mixed melanoma/node organoids (live/dead staining and metabolism assays); type: cell-based, human; settings: fourth patient's mixed melanoma/node organoids; 72 hours
Excerpt: Methods: Surgically obtained matched melanoma and lymph node biospecimens from the same patient were transferred to the laboratory, washed with saline, antibiotic, and red blood cell lysis buffer. Biospecimens were dissociated, and incorporated into an ECM-based hydrogel system and biofabricated into 3D patient-specific mixed melanoma/node organoids. Cells were not sorted for tumor, as to preserve tumor heterogeneity, including stroma and immune cell components. […] Quantification of live/dead staining and metabolism assays, recorded relative drug efficacy in killing melanoma cells for a particular patient. Light microscopy, IHC and next generation sequencing (NGS) were used to compare tumor melanoma cells with organoid melanoma cells.

melanoma tumor organoid = assay: Drug screen, cell viability of melanoma tumor organoid with or without lymph node cells (FIG. 5); type: cell-based, human; settings: decrease observed only when the organoid included both tumor cells and lymph node cells
Experimental: Organoid-device integration: HA and gelatin/collagen components are mixed with cells, as well as a crosslinker and photoinitiator for photopolymerization in situ. Cells are added to the gel precursor preferably at a density of 20 million cells/mL or higher, after which the cell-gel mixture introduced to the microfluidic chambers sequentially and patterning is accomplished using a positive-tone photomask to define shape and location of constructs (FIG. 3B). For the proposed studies, each device will contain series of 2 chamber circuits in which one chamber will be formed a tumor organoid and in the other will be formed a lymph node organoid. Alternatively, both organoids can exist separately, but in the same chamber (FIG. 2). In another form factor, tumor cells and immune cells can be photopatterned into the device as adjacent regions, in which for the immune cells to successfully target the tumor cells, they are forced to recognize tumor cell antigens, activate, and migrate to the tumor region. (FIGS. 4A-4C). […]
Drug screen output metrics: Drug efficacy will be determined by: viability of cells (LIVE/DEAD), number of viable cells alone, number of viable cells versus dead cells, mitochondrial metabolism (MTS), LDH quantification (positive in tumor cells), and IHC (Annexin V vs. KI67-apoptotic vs. proliferative markers).

PTOs = assay: Exposure of patient tumor organoids (PTOs) to immune checkpoint inhibitors, tolerance; type: cell-based; settings: ~100 nM concentrations; unless immune cells are activated
Excerpt: Potential immune checkpoint inhibitor treatment. […] Concentrations of these two widely-used PD-1 inhibitors and one widely-used CTLA-4 inhibitor will be derived from clinical treatment guidelines and scaled to the volume of the PTO.

[3] = tested on: colorectal tumor-node organoids; assay: Mitochondrial metabolism of colorectal patient tumor organoids with or without matched lymph node immune cells; type: cell-based, human; settings: integrated colorectal tumor-node organoids; seen only when immune cells are present; FIG. 1A
Experimental: as §1, with “markers). […] This was not expected given the BRAF wild status of the patient. […] The alternative therapy was identified by PTO screen more than 4 weeks prior to genomic sequencing that verified a MEK mutation, thus qualifying the patient for trametinib.” for “markers).”

melanoma = assay: Clinical response of melanoma patients to treatment; type: in vivo, human; settings: stage III and IV melanoma patients of Example 7
[4] = tested on: low-grade appendiceal tumor-node organoids; assay: LIVE/DEAD imaging of appendiceal tumor organoids with and without node cells; type: cell-based, human; settings: FIG. 1B; for LIVE/DEAD imaging, drug effectiveness: appendiceal tumor organoids with and without node cells; for cell death (LIVE/DEAD staining): low-grade appendiceal tumor-node organoids
Experimental: as §1

Substance	organoid response (LIVE/DEAD staining) [1]	organoid response (LIVE/DEAD staining) ([1]; listed as dabrafenib and trametinib)	melanoma killing [2]	organoid viability, measured by overall metabolic activity (melanoma tumor organoid)	effect on the PTOs (PTOs)	mitochondrial metabolism [3]	patient clinical response (melanoma)	LIVE/DEAD imaging, drug effectiveness [4]	cell death (LIVE/DEAD staining) [4]
dabrafenib and trametinib [dabrafenic/trametinib]	increased DEAD staining	did respond	–	–	–	–	–	–	–
ipilimumab [ipilumimab]	did not respond	–	–	–	–	–	–	–	–
nivolumab	–	–	50%	significant decrease	no negative effect	an increase in mitochondrial metabolism; also recorded: Increased metabolism	clinically progressed	effective only when immune cell (lymph) population was incorporated	increases in cell death
pembrolizumab	did not respond	–	–	significant decrease	no negative effect	–	–	effective only when immune cell (lymph) population was incorporated	increases in cell death
